# From patent US9844546B2, “Antibody against human HIF hydroxylase” (OXFORD UNIVERSITY INNOVATION LIMITED, priority 2001, dated 2017)
# Legend:
# [1] = system: cytoplasmic extract-dependent modification of the 5′ VHL E3 target site; test: Peptide competition of cytoplasmic extract-dependent modification of GAL-HIF-1α 344-553, in vitro VHL E3 ubiquitylation; type: biochemical, human; conditions: 12.5 μM peptide, RCC4 cytoplasmic extract
# Protocol: The E1 activating enzyme used in ubiquitylation assays was either obtained from Affiniti Research (Exeter, UK) or purified from BL21 (DE3) E. coli transfected with plasmid expressing His6-tagged mouse E1. His6-E1 was purified by Ni^2+-agarose affinity chromatography. After dialysis against phosphate buffered saline, glycerol was added to 10% (vol/vol) and 25 ng/μl aliquots stored at −80° C. Human CDC34 recombinant E2 enzyme was from Affiniti Research (Exeter, UK). VHL E3 was obtained by anti-HA immunoprecipitation from stably transfected 7860-VHLHA cell lysates (Iliopoulos et al). GAL-HIF-1α substrate was prepared by anti-GAL immunoprecipitation from [^35S] methionine-labeled TnT rabbit reticulocyte (Promega) translates. Each 40 μl ubiquitylation reaction consisted of 4 μl of 5 mg/ml ubiquitin, 4 μl of 10×ATP regenerating system (20 mM Tris pH7.5, 10 mM ATP, 10 mM magnesium acetate, 300 mM creatine phosphate, 0.5 mg/ml creatine phosphokinase), 2 μl, E1, 3 μl E2, 6 μl VHL E3 immunopurified on protein G sepharose, 6 μl GAL-HIF-1α substrate immunopurified on agarose beads. Reactions were incubated at 30° C. for 2 h with occasional mixing, stopped by the addition of SDS sample buffer and analysed by SDS-PAGE and autoradiography. Cytoplasmic extract-based ubiquitylation assays have been previously described (Cockman).
# It has been shown above that the 3′ VHL E3 target site responds to oxygen level via hydroxylation at proline residue 564. This praline residue forms part of a potential motif conserved between the 5′ and 3′ target sites. Mutation of the corresponding proline residue (P402A) in the 5′ target site also results in functional inactivation. It was possible therefore that proline residue 402 was also a target for regulatory hydroxylation, To test this we asked whether polypeptides corresponding to the 3′ VHL E3 target site could interfere with the cytoplasmic extract-dependent modification of the 5′ VHL E3 target site. […]
# [2] = system: angiogenesis in subcutaneous polyurethane sponge; test: Murine subcutaneous sponge angiogenesis assay; type: in vivo, mouse; conditions: 1 mM, 100 microliters injected days 1, 2, 4, 5; day 7; versus solvent
# Protocol: Implantation of a polyurethane sponge subcutaneously in a mouse provides an inflammatory stimulus to angiogenesis and is a well established model for assessing the pro- and anti-angiogenic effects of compounds. To test the effects of dimethyl oxalylglycine in vivo, sterile 8 mm sponge discs were inserted under the dorsal skin of C57 Black mice on Day 0. Test solutions were injected through the skin into the sponges of mice once per day on days 1, 2, 4 and 5. Individual mice received 100 microliters aliquots of either sterile dimethyloxalylglycine (0.1 mM, 1 mM or 10 mM) or carrier solution. Animals were sacrificed on day 7 and the sponges removed. The sponges were fixed in 3.7% formaldehyde, paraffin embedded and stained immunohistochemically for von Willebrand factor to identify blood vessels.
# Artificial activation of the HIF signalling pathway using the methods of the invention should induce angiogenesis and will therefore be of potential therapeutic use in ischaemic disease. We tested the effect of polypeptide induced HIF stabilisation in an in vitro angiogenesis assay, co-culturing human microvascular endothelial cells (HMEC-1) with empty vector transfected or doxCODD cells. In view of the possibility of sustained activation inducing a negative feedback loop we opted to test the effects of intermittent induction. […]
# HIF = test: Induction of HIF in tissue culture by esterified equivalents; type: cell-based; conditions: In-vivo esterified equivalent
# Hep3b and U20S cells = test: Gal4/HIF-1α 775-826 carboxy terminal transactivator luciferase reporter assay; type: cell-based, human; conditions: normoxia or 2% hypoxia overnight
# Protocol: Hep3b and U20S cells were co-transfected with a mixture of three plasmids; pUAS.tk.luc, encoding a GAL 4 responsive luciferase gene, pgal-hif775-826, a mammalian expression plasmid leading to expression of a fusion between a 147 amino acid DNA binding domain of GAL 4 and the carboxy terminal transactivator of human HIF-1 alpha, and pCMV.beta-gal, encoding a constitutively expressed beta-galactosidase gene as a transfection control.
# 48 hours following transfection, cells were incubated in normoxia or 2% hypoxia overnight in the presence or absence of dimethyl oxalyl glycine as indicated. Cell lysates were assayed for luciferase and beta galactosidase activity and the relative luciferase activity in each sample determined.
compound,measurement,setting,value
19:Pro564Hyp: polypeptide (HIF-1α residues 556-574) containing a trans-4-hydroxy-S-proline residue at position 564,competition of cytoplasmic extract effect on VHL-dependent ubiquitylation of GAL 344-553,[1],unable to compete
COC(=O)CNC(=O)C(=O)OC [dimethyloxalylglycine],blood vessels in sponges (von Willebrand factor),[2],Considerably more blood vessels
same,Induction of HIF in tissue culture,HIF,Yes
same,relative luciferase activity (carboxy terminal transactivator),Hep3b and U20S cells,enhanced activity of the carboxy terminal transactivator
19:WT: polypeptide comprising HIF-1α residues 556 to 574,competition of cytoplasmic extract effect on VHL-dependent ubiquitylation of GAL 344-553,[1],completely ablate the cytoplasmic extract effect
